Experimental data from PMC7224104 (Molecular Diversity, 2020).

Target: T1, porcine liver COMT (Sus scrofa, UniProt Q99028)
T1 sequence (Q99028 1-186): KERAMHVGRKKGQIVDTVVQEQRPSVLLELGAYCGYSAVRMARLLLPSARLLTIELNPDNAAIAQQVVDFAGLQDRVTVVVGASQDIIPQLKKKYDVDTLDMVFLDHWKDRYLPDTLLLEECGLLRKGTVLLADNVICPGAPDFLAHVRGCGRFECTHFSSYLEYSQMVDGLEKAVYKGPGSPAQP
Test: biochemical

Cc1c(O)c(=O)ccn1-c1ccccc1 [Compound 1, 3-Hydroxy-2-methyl-1-phenylpyridin-4-one]
IC50: 10.9 ± 1.06 µM

Cc1c(O)c(=O)ccn1Cc1ccccc1 [Compound 2, 1-Benzyl-3-hydroxy-2-methylpyridin-4-one]
IC50: 4.55 ± 0.545 µM

Cc1c(O)c(=O)ccn1CCc1ccccc1 [Compound 3, 3-Hydroxy-2-methyl-1-(2-phenylethyl)pyridin-4-one]
IC50: 15 ± 2.1 µM

Cc1c(O)c(=O)ccn1CCCc1ccccc1 [Compound 4, 3-Hydroxy-2-methyl-1-(3-phenylpropyl)pyridin-4-one]
IC50: 18.4 ± 0.974 µM

Cc1c(O)c(=O)ccn1CCCCc1ccccc1 [Compound 5, 3-Hydroxy-2-methyl-1-(4-phenylbutyl)pyridin-4-one]
IC50: 9.05 ± 1.25 µM

Cc1c(O)c(=O)ccn1C1CCCCC1 [Compound 6, 1-Cyclohexyl-3-hydroxy-2-methylpyridin-4-one]
IC50: 12.2 ± 3.06 µM

Cc1c(O)c(=O)ccn1C1CCCC1 [Compound 7, 1-Cyclopentyl-3-hydroxy-2-methylpyridin-4-one]
IC50: 19.8 ± 5.86 µM

Cc1c(O)c(=O)ccn1-c1cccc(Cl)c1 [Compound 8, 1-(3-Chlorophenyl)-3-hydroxy-2-methylpyridin-4-one]
IC50: 11.2 ± 1.01 µM

Cc1c(O)c(=O)ccn1-c1ccc(Cl)cc1 [Compound 9, 1-(4-Chlorophenyl)-3-hydroxy-2-methylpyridin-4-one]
IC50: 9.31 ± 2.94 µM

Cc1ccc(Cn2ccc(=O)c(O)c2C)cc1 [Compound 10, 3-Hydroxy-2-methyl-1-(4-methylbenzyl)pyridin-4-one]
IC50: 5.76 ± 0.664 µM

Cc1ccc(C(=O)c2cc(O)c(O)c([N+](=O)[O-])c2)cc1 [Tolcapone, reference compound]
IC50: 0.0068 µM
